The values that follow come from patent publication US6372194B1, “MRI contrast media recognizing minor environmental changes” (Nihon Schering K.K., priority 1997, dated 2002).

The assay in a line: Proton relaxing times (T1, T2) and proton relaxivity, Minispec 20 MHz, 40° C. It counts as physicochemical. The following applies: for T1 relaxing time / T2 relaxing time: 20 MHz, 40° C. How it is done:
The proton relativity of poly[Gd(DTPA-PDA)2]35 and poly[Gd(DTPA-PDA)5]14 obtained in Example 1 was compared with that of conventional MRI contrast medium. As the conventional MRI contrast medium, used was Gd-DTPA (Magnevist). The proton relaxivity was determined by using Minispec (NMS 120/125/10VTS, manufactured by Japan Bruker) at frequency at 20 MHz and temperature at 40° C. T1 was determined using an IR (inversion recovery) method under the conditions of initial τ of 2 ms, τ magnification of 1.7 and determination points of 20. T2 was determined using a CPMG (Carr-Purcell-Meiboon-Gill) method under the conditions of τ of 1 ms and determination points of 50.
Respective proton relaxing times (T1 and T2) are shown in Table 1, and the proton relaxivity (R1 and R2) calculated from said proton relaxing time are shown in Table 2.

With `O=C([O-])CN(CCN(CC(=O)[O-])CC(=O)O)CCN(CC(=O)[O-])CC(=O)O.[Gd+3]` [Gd-DTPA], the T1 relaxing time runs as follows: (Gd concentration 0.1 mM) 1503 ms; (Gd concentration 1 mM) 247 ms; (Gd concentration 5 mM) 53 ms; (Gd concentration 10 mM) 26 ms. Besides, the T2 relaxing time stood at 1339 ms (Gd concentration 0.1 mM), 220 ms (Gd concentration 1 mM), 47 ms (Gd concentration 5 mM) and 24 ms (Gd concentration 10 mM). Besides, where the note is “calculated from proton relaxing time”, the “proton relaxivity R1” value is on record as 3.81 1 mmol^−1 sec^−1.
